Test results as given in patent US20260274892A1, “MACROCYCLIC BROAD SPECTRUM ANTIBIOTICS” (RQx Pharmaceuticals, Inc., priority 2017, published 2026).

Columns and labels:
[1] = system: Methicillin Resistant Staphylococcus aureus strain USA 200; test: Minimum inhibitory concentration (MIC), CLSI broth micro-dilution, S. aureus; format: cell-based; details: Staphylococcus aureus, MRSA / USA200; Table 6; MRSA USA 200; cation adjusted Mueller Hinton Broth + 0.002% Tween-80; 35° C., 22 hours
Outline: (§1)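 Colonies grown 20 h at 35° C on Trypticase Soy agar (MRSA) or Luria agar (E. coli) were suspended in cation-adjusted Mueller Hinton broth with 0.002% Tween-80. Suspensions were added at OD600 0.0005 to 10-point twofold compound dilutions, then incubated 22 h at 35° C.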

[2] = system: Escherichia coli ATCC 25922; test: Minimum inhibitory concentration (MIC), CLSI broth micro-dilution, E. coli; format: cell-based; details: Escherichia coli, ATCC25922, 22 h, Table 6, cation adjusted Mueller Hinton Broth + 0.002% Tween-80, 35° C.
Outline: as §1

SMILES	MIC [1] [µM]	MIC [2] [µM]
CCc1ccc(-c2nc(C)c(C(=O)N[C@@H](CCN)C(=O)N(C)[C@@H]3C(=O)N[C@@H](C)C(=O)N[C@H](C(=O)NCC#N)Cc4ccc(O)c(c4)-c4cc3ccc4OCCN)c(C)n2)cc1 (racemic) [Compound 516, rac-(8S,11S,14S)-18-(2-aminoethoxy)-N-(cyanomethyl)-3-hydroxy-11-methyl-14-[methyl-[rac-(2S)-4-amino-2-[[2-(4-ethylphenyl)-4,6-dimethyl-pyrimidine-5-carbonyl]amino]butanoyl]amino]-10,13-dioxo-9,12-diazatricyclo[13.3.1.12,6]icosa-1(18),2(20),3,5,15(19),16-hexaene-8-carboxamide]	0.19	2
CCCCCOc1ccc(-c2nc(C)c(C(=O)N[C@@H](CCN)C(=O)N(C)[C@@H]3C(=O)N[C@@H](C)C(=O)N[C@H](C(=O)NCC#N)Cc4ccc(O)c(c4)-c4cc3ccc4OCCN)c(C)n2)cc1 (racemic) [Compound 518, rac-(8S,11S,14S)-18-(2-aminoethoxy)-N-(cyanomethyl)-3-hydroxy-11-methyl-14-[methyl-[rac-(2S)-4-amino-2-[[4,6-dimethyl-2-(4-pentoxyphenyl)pyrimidine-5-carbonyl]amino]butanoyl]amino]-10,13-dioxo-9,12-diazatricyclo[13.3.1.12,6]icosa-1(18),2(20),3,5,15(19),16-hexaene-8-carboxamide]	0.028	0.16
CCCCCc1ccc(-c2nc(C)c(C(=O)N[C@@H](CCN)C(=O)N(C)[C@@H]3C(=O)N[C@@H](C)C(=O)N[C@H](C(=O)NCC#N)Cc4ccc(O)c(c4)-c4cc3ccc4OCCN)c(C)n2)cc1 (racemic) [Compound 521, rac-(8S,11S,14S)-18-(2-aminoethoxy)-N-(cyanomethyl)-3-hydroxy-11-methyl-14-[methyl-[rac-(2S)-4-amino-2-[[4,6-dimethyl-2-(4-pentylphenyl)pyrimidine-5-carbonyl]amino]butanoyl]amino]-10,13-dioxo-9,12-diazatricyclo[13.3.1.12,6]icosa-1(18),2(20),3,5,15(19),16-hexaene-8-carboxamide]	0.047	0.2
Cc1nc(-c2ccc(C(C)(C)C)cc2)ncc1C(=O)N[C@@H](CCN)C(=O)N(C)[C@@H]1C(=O)N[C@@H](C)C(=O)N[C@H](C(=O)NCC#N)Cc2ccc(O)c(c2)-c2cc1ccc2OCCN (racemic) [Compound 523, rac-(8S,11S,14S)-18-(2-aminoethoxy)-N-(cyanomethyl)-3-hydroxy-11-methyl-14-[methyl-[rac-(2S)-4-amino-2-[[2-(4-tert-butylphenyl)-4-methyl-pyrimidine-5-carbonyl]amino]butanoyl]amino]-10,13-dioxo-9,12-diazatricyclo[13.3.1.12,6]icosa-1(18),2(20),3,5,15(19),16-hexaene-8-carboxamide]	0.044	0.28
Cc1cc(-c2ccc(CC(C)C)cc2)ncc1C(=O)N[C@@H](CCN)C(=O)N(C)[C@@H]1C(=O)N[C@@H](C)C(=O)N[C@H](C(=O)NCC#N)Cc2ccc(O)c(c2)-c2cc1ccc2OCCN (racemic) [Compound 525, rac-(8S,11S,14S)-18-(2-aminoethoxy)-N-(cyanomethyl)-3-hydroxy-11-methyl-14-[methyl-[rac-(2S)-4-amino-2-[[6-(4-isobutylphenyl)-4-methyl-pyridine-3-carbonyl]amino]butanoyl]amino]-10,13-dioxo-9,12-diazatricyclo[13.3.1.12,6]icosa-1(18),2(20),3,5,15(19),16-hexaene-8-carboxamide]	0.053	0.56
Cc1cc(-c2ccc(C(C)(C)C)cc2)nc(C)c1C(=O)N[C@@H](CCN)C(=O)N(C)[C@@H]1C(=O)N[C@@H](C)C(=O)N[C@H](C(=O)NCC#N)Cc2ccc(O)c(c2)-c2cc1ccc2OCCN (racemic) [Compound 530, rac-(8S,11S,14S)-18-(2-aminoethoxy)-N-(cyanomethyl)-3-hydroxy-11-methyl-14-[methyl-[rac-(2S)-4-amino-2-[[6-(4-tert-butylphenyl)-2,4-dimethyl-pyridine-3-carbonyl]amino]butanoyl]amino]-10,13-dioxo-9,12-diazatricyclo[13.3.1.12,6]icosa-1(18),2(20),3,5,15(19),16-hexaene-8-carboxamide]	0.063	0.35
Cc1nc(-c2ccc3c(c2)CCC3(C)C)nc(C)c1C(=O)N[C@@H](CCN)C(=O)N(C)[C@@H]1C(=O)N[C@@H](C)C(=O)N[C@H](C(=O)NCC#N)Cc2ccc(O)c(c2)-c2cc1ccc2OCCN (racemic) [Compound 531, rac-(8S,11S,14S)-18-(2-aminoethoxy)-N-(cyanomethyl)-3-hydroxy-11-methyl-14-[methyl-[rac-(2S)-4-amino-2-[[2-(1,1-dimethylindan-5-yl)-4,6-dimethyl-pyrimidine-5-carbonyl]amino]butanoyl]amino]-10,13-dioxo-9,12-diazatricyclo[13.3.1.12,6]icosa-1(18),2(20),3,5,15 8-carboxamide]	0.047	0.25
CCCCCOc1ccc(-c2nc(C)c(C(=O)N[C@@H](CCN)C(=O)N(C)[C@@H]3C(=O)N[C@@H](C)C(=O)N[C@H](C(=O)NCC#N)Cc4ccc(OCCN)c(c4)-c4cc3ccc4O)c(C)n2)cc1 (racemic) [Compound 536, rac-(8S,11S,14S)-3-(2-aminoethoxy)-N-(cyanomethyl)-18-hydroxy-11-methyl-14-[methyl-[rac-(2S)-4-amino-2-[[4,6-dimethyl-2-(4-pentoxyphenyl)pyrimidine-5-carbonyl]amino]butanoyl]amino]-10,13-dioxo-9,12-diazatricyclo[13.3.1.12,6]icosa-1(18),2(20),3,5,15(19),16-hexaene-8-carboxamide]	0.016	0.13
Cc1nc(-c2ccc(OCCC(C)(C)C)cc2)nc(C)c1C(=O)N[C@@H](CCN)C(=O)N(C)[C@@H]1C(=O)N[C@@H](C)C(=O)N[C@H](C(=O)NCC#N)Cc2ccc(O)c(c2)-c2cc1ccc2OCCN (racemic) [Compound 539, rac-(8S,11S,14S)-18-(2-aminoethoxy)-N-(cyanomethyl)-3-hydroxy-11-methyl-14-[methyl-[rac-(2S)-4-amino-2-[[2-[4-(3,3-dimethylbutoxy)phenyl]-4,6-dimethyl-pyrimidine-5-carbonyl]amino]butanoyl]amino]-10,13-dioxo-9,12-diazatricyclo[13.3.1.12,6]icosa-1(18),2(20),3,5,15(19),16-hexaene-8-carboxamide]	0.023	0.15

Now from value to compound:

MIC [1] [µM]	MIC [2] [µM]	SMILES
0.19	0.75	CC(=O)NCCOc1ccc2cc1-c1cc(ccc1OCCN)[C@H](N(C)C(=O)[C@H](CCN)NC(=O)c1c(C)nc(-c3ccc(C(C)(C)C)cc3)nc1C)C(=O)N[C@@H](C)C(=O)N[C@H](C(=O)NCC#N)C2 (racemic) [Compound 517, rac-(8S,11S,14S)-3-(2-acetamidoethoxy)-18-(2-aminoethoxy)-N-(cyanomethyl)-11-methyl-14-[methyl-[rac-(2S)-4-amino-2-[[2-(4-tert-butylphenyl)-4,6-dimethyl-pyrimidine-5-carbonyl]amino]butanoyl]amino]-10,13-dioxo-9,12-diazatricyclo[13.3.1.12,6]icosa-1(18),2(20),3,5,15(19),16-hexaene-8-carboxamide]
0.56	4.5	Cc1nc(-c2ccc(O)cc2)ncc1C(=O)N[C@@H](CCN)C(=O)N(C)[C@@H]1C(=O)N[C@@H](C)C(=O)N[C@H](C(=O)NCC#N)Cc2ccc(OCCN)c(c2)-c2cc1ccc2OCCN (racemic) [Compound 524, rac-(8S,11S,14S)-3,18-bis(2-aminoethoxy)-N-(cyanomethyl)-11-methyl-14-[methyl-[rac-(2S)-4-amino-2-[[2-(4-hydroxyphenyl)-4-methyl-pyrimidine-5-carbonyl]amino]butanoyl]amino]-10,13-dioxo-9,12-diazatricyclo[13.3.1.12,6]icosa-1(18),2(20),3,5,15(19),16-hexaene-8-carboxamide]
0.047	0.33	Cc1nc(-c2ccc(C(C)(C)C)cc2)ccc1C(=O)N[C@@H](CCN)C(=O)N(C)[C@@H]1C(=O)N[C@@H](C)C(=O)N[C@H](C(=O)NCC#N)Cc2ccc(O)c(c2)-c2cc1ccc2OCCN (racemic) [Compound 526, rac-(8S,11S,14S)-18-(2-aminoethoxy)-N-(cyanomethyl)-3-hydroxy-11-methyl-14-[methyl-[rac-(2S)-4-amino-2-[[6-(4-tert-butylphenyl)-2-methyl-pyridine-3-carbonyl]amino]butanoyl]amino]-10,13-dioxo-9,12-diazatricyclo[13.3.1.12,6]icosa-1(18),2(20),3,5,15(19),16-hexaene-8-carboxamide]
0.029	0.23	CCC(C)(C)c1ccc(-c2ncc(C(=O)N[C@@H](CCN)C(=O)N(C)[C@@H]3C(=O)N[C@@H](C)C(=O)N[C@H](C(=O)NCC#N)Cc4ccc(O)c(c4)-c4cc3ccc4OCCN)c(C)n2)cc1 (racemic) [Compound 535, rac-(8S,11S,14S)-18-(2-aminoethoxy)-N-(cyanomethyl)-3-hydroxy-11-methyl-14-[methyl-[rac-(2S)-4-amino-2-[[2-[4-(1,1-dimethylpropyl)phenyl]-4-methyl-pyrimidine-5-carbonyl]amino]butanoyl]amino]-10,13-dioxo-9,12-diazatricyclo[13.3.1.12,6]icosa-1(18),2(20),3,5,15(19),16-hexaene-8-carboxamide]
